This test concerns the target T1, ACE from rabbit lungs (Oryctolagus cuniculus, UniProt P12822).
T1 construct: ACE from rabbit lungs and HHL was supplied by Sigma-Aldrich; purchased Sigma-Aldrich (St. Louis, MO, USA); host or cells: rabbit lung tissue
T1 sequence (P12822 34-1310): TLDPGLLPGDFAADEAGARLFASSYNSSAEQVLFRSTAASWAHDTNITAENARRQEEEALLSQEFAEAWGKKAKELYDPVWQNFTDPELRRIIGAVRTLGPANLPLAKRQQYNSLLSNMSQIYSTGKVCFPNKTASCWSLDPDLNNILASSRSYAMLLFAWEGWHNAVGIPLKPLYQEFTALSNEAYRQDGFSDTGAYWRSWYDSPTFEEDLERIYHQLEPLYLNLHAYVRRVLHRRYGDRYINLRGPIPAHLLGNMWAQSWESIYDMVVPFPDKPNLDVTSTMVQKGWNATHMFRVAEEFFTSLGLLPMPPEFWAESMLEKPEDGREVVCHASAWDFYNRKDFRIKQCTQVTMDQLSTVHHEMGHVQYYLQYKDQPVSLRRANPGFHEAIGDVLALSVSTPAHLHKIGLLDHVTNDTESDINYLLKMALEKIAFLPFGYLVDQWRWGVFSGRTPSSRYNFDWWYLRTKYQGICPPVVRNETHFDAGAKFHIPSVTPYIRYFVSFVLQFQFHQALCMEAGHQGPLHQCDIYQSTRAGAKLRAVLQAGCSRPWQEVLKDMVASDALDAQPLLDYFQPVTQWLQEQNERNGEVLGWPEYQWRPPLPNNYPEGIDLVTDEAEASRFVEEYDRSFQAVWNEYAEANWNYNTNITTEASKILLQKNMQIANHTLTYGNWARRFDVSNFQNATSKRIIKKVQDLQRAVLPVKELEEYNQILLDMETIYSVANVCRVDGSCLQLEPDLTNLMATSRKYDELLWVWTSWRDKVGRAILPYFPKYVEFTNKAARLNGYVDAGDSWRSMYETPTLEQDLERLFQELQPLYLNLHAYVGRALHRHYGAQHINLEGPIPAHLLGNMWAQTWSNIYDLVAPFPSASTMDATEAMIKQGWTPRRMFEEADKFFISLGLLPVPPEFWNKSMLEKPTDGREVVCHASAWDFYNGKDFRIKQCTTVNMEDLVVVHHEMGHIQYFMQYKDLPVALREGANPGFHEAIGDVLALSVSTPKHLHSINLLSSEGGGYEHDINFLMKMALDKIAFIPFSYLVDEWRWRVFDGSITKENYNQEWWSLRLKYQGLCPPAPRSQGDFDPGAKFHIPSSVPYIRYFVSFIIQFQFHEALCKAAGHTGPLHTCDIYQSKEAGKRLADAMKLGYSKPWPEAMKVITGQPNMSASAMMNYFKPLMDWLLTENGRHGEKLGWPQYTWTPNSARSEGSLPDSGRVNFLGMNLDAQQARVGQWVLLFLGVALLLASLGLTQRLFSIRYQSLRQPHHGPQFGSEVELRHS
The experiment in a line: ACE inhibitory activity assay by RP-HPLC (HHL substrate, hippuric acid detection). The conditions noted are these: for ACE inhibitory activity (in words): chromatograms at 0.048 mg/mL. Format: biochemical. The source says: The potential oligopeptides obtained by docking were chemically synthesized by the Beijing Scilight Biotechnology Ltd., Co. (Beijing, China). The purity levels of the synthesized oligopeptides were all greater than 98% by HPLC analysis. ACE from rabbit lungs and HHL was supplied by Sigma-Aldrich (St. Louis, MO, USA). Acetonitrile of HPLC grade was purchased from Fisher Scientific (Pittsburgh, PA, USA). Lisinopril was supplied by Beijing HWRK Chem Co., Ltd. (Beijing, China) with more than 98% purity. All other used chemicals were of analytical grade.
The assay of in vitro ACE inhibitory activity was performed by RP-HPLC method by Yuan. Initially, the mixture was incubated at 37 °C for 10 min, including 10 μL of samples and 20 μL ACE (2 mU). After adding 20 μL of 2 mM HHL, the mixture continued to be incubated for 60 min until acetonitrile was added to terminate reaction. HA from the hydrolysis of the substrate HHL was detected by RP-HPLC on a C18 column (250 × 4.6 mm, 5 μm, Tianhe) at 228 nm. The column was eluted at a flow rate of 1 mL/min using 25% (v/v) acetonitrile in water with 0.05% trifluoroacetic acid. Lisinopril and borate buffer solution were used as positive and negative control, respectively. The formula (1) for computing ACE inhibitory rate is shown as follows. Wherein, Acontrol is the peak area of HA by negative control and Asample is the peak area of HA by the sample. The IC50 was calculated by the dosage and efficiency curve based on the 50% inhibition of ACE. (1) Inhibitory activity (%)=Acontrol−Asample/Acontrol×100%

No end group written: not given here.

On to “VSAIGF [oligopeptide from in silico proteolysis of adlay prolamins, chemically synthesized]”, for which the “ACE inhibitory activity (in words)” value (RP-HPLC) is given as “could not obtain the desirable activities of ACE”.

On to `NCCCC[C@H](N[C@@H](CCc1ccccc1)C(=O)O)C(=O)N1CCC[C@H]1C(=O)O` [Lisinopril, lisinopril, reference compound], for which the ACE inhibition ratio (lisinopril 2 × 10^−9 mol/L, RP-HPLC, 228 nm, 37 °C, 2 mM HHL, 60 min) is on record as 77.86% ± 0.15%. Take “NCHEF [oligopeptide from in silico proteolysis of adlay prolamins, chemically synthesized]”: the “ACE inhibitory activity (in words)” value (RP-HPLC) was “could not obtain the desirable activities of ACE”. Take NPATY [NPATY]: for the setting “RP-HPLC on C18 column, 228 nm, 10 μL sample + 20 μL ACE (2 mU), 37 °C 10 min pre-incubation, 20 μL of 2 mM HHL, 60 min, from dosage and efficiency curve”, the IC50 (as a rule, the concentration that inhibits the measured activity by half) turned out to be 61.9 ± 2.77 µM.

The values are drawn from paper PMC5187899, “Discovery of Anti-Hypertensive Oligopeptides from Adlay Based on In Silico Proteolysis and Virtual Screening” (International Journal of Molecular Sciences, 2016).
